pIC50: −log10 of the molar value. ≈ marks a conversion by molar mass, not a printed value. Each block holds one molecule with its values, some of them ahead of it.
Legend:
[1] = Aqueous solubility in PBS, pH 7.4; type: physicochemical; settings: phosphate buffered saline, pH 7.4, aqueous buffer, thermodynamic from solid, pH 7.4 phosphate buffered saline, 24 hours, amorphous or crystalline material; read-out: Aqu. Solubility
Method in brief: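 Excess solid suspended at 0.5 mg/mL in PBS pH 7.4 and stirred 24 hours. Filtrate (0.45 μm) diluted 1:1 with ACN:H2O and quantified by UPLC against a standard curve; residual solid phase checked by XRPD and PLM.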

[2] = test system: HIV-1 wild-type (R8) virus; assay: Viral KINetics in Green cells (VIKING) assay, HIV-1 replication in MT4-GFP reporter cells; type: cell-based; settings: Human immunodeficiency virus 1, 10% normal human serum, MT4-GFP cells, HIV-1 wild-type (R8); read-out: Viking (10% NHS), IC50
Method in brief: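 Compounds in 3-fold, 10-point series (typical 4 μM-0.2 nM) in 10% normal human serum received MT4 GFP-reporter T cells pre-infected overnight with wild-type R8 virus (MOI ~0.01). Ratio of GFP-positive cells at 72 vs 48 h defined replication; IC50 from nonlinear 4-parameter dose-response fitting.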

[3] = Plasma stability in frozen human plasma; type: in vitro ADME; settings: frozen human plasma at 37° C., 0-3 hr; read-out: T1/2 Human Plasma (converted)
Procedure: Plasma stability of the compounds was evaluated in frozen human plasma at 37° C. in a 10% CO2 environment. The stability of the analyte was assessed by determining the percentage of drug loss over the course of 0, 0.25, 0.5, 1, and 3 hr. In addition, the appearance of Compound A was determined for the same time course. Percent of drug loss as based on ratio with internal standard. Analyte concentrations were measured by LC/MS/MS. Linear regression was performed with log transformed percent of average TO values and linear time values. The elimination rate constant (ke) was calculated from the slope of this regression line and the half-life (T½) calculated based on the elimination rate constant.

SMILES: C#C[C@]1(CO)O[C@@H](n2ccc3c(N)nc(Cl)nc32)C[C@@H]1OC(=O)c1ccccc1 [Example 5, (2R,3S,5R)-5-(4-amino-2-chloro-7H-pyrrolo[2,3-d]pyrimidin-7-yl)-2-ethynyl-2-(hydroxymethyl)tetrahydrofuran-3-yl benzoate]
solubility at 24 h [1]: < 1 µg/mL | pIC50 [2]: 7.46 | half-life [3]: 57.7 h

SMILES: C#C[C@]1(COC(=O)C(CC)CC)O[C@@H](n2ccc3c(N)nc(Cl)nc32)C[C@@H]1O [Example 40, ((2R,3S,5R)-5-(4-amino-2-chloro-7H-pyrrolo[2,3-d]pyrimidin-7-yl)-2-ethynyl-3-hydroxytetrahydrofuran-2-yl)methyl 2-ethylbutanoate]
solubility at 24 h [1]: 282 µg/mL (≈ 693 µM) | pIC50 [2]: 8.26 | half-life [3]: 1.9 h

SMILES: C#C[C@]1(COC(=O)C(C)C)O[C@@H](n2ccc3c(N)nc(Cl)nc32)C[C@@H]1O [Example 11, ((2R,3S,5R)-5-(4-amino-2-chloro-7H-pyrrolo[2,3-d]pyrimidin-7-yl)-2-ethynyl-3-hydroxytetrahydrofuran-2-yl)methyl isobutyrate]
solubility at 24 h [1]: 285 µg/mL (≈ 752 µM) | pIC50 [2]: 8.72 | half-life [3]: 0.042 h

SMILES: C#C[C@]1(COC(=O)CCCC)O[C@@H](n2ccc3c(N)nc(Cl)nc32)C[C@@H]1O [Example 15, ((2R,3S,5R)-5-(4-amino-2-chloro-7H-pyrrolo[2,3-d]pyrimidin-7-yl)-2-ethynyl-3-hydroxytetrahydrofuran-2-yl)methyl pentanoate]
solubility at 24 h [1]: 55 µg/mL (≈ 140 µM) | pIC50 [2]: 8.64 | half-life [3]: < 0.25 h

More lines, main results first:

solubility at 24 h [1]: < 1 µg/mL | half-life [3]: 2.2 h
SMILES: C#C[C@]1(COC(=O)C(CC)CC)O[C@@H](n2ccc3c(N)nc(Cl)nc32)C[C@@H]1OC(=O)C(CC)CC [Example 44, (2R,3S,5R)-5-(4-amino-2-chloro-7H-pyrrolo[2,3-d]pyrimidin-7-yl)-2-(((2-ethylbutanoyl)oxy)methyl)-2-ethynyltetrahydrofuran-3-yl 2-ethylbutanoate]
pIC50 [2]: 6.45

solubility at 24 h [1]: < 1 µg/mL | half-life [3]: 0.036 h
SMILES: C#C[C@]1(COC(=O)CCCC)O[C@@H](n2ccc3c(N)nc(Cl)nc32)C[C@@H]1OC(=O)CCCC [Example 7, (2R,3S,5R)-5-(4-amino-2-chloro-7H-pyrrolo[2,3-d]pyrimidin-7-yl)-2-ethynyl-2-((pentanoyloxy)methyl)tetrahydrofuran-3-yl pentanoate]
pIC50 [2]: 8.54

solubility at 24 h [1]: 42 µg/mL (≈ 106 µM) | half-life [3]: 19.1 h
SMILES: C#C[C@]1(CO)O[C@@H](n2ccc3c(N)nc(Cl)nc32)C[C@@H]1OC(=O)OC(C)C [Example 1, (2R,3S,5R)-5-(4-amino-2-chloro-7H-pyrrolo[2,3-d]pyrimidin-7-yl)-2-ethynyl-2-(hydroxymethyl)tetrahydrofuran-3-yl isopropyl carbonate]
pIC50 [2]: 7.13

solubility at 24 h [1]: 27 µg/mL (≈ 68.7 µM) | half-life [3]: 16.7 h
SMILES: C#C[C@]1(CO)O[C@@H](n2ccc3c(N)nc(Cl)nc32)C[C@@H]1OC(=O)CCCC [Example 3, (2R,3S,5R)-5-(4-amino-2-chloro-7H-pyrrolo[2,3-d]pyrimidin-7-yl)-2-ethynyl-2-(hydroxymethyl)tetrahydrofuran-3-yl pentanoate]
pIC50 [2]: 8.43

solubility at 24 h [1]: < 1 µg/mL | half-life [3]: 1.1 h
SMILES: C#C[C@]1(COC(=O)c2ccccc2)O[C@@H](n2ccc3c(N)nc(Cl)nc32)C[C@@H]1OC(=O)c1ccccc1 [Example 6, (2R,3S,5R)-5-(4-amino-2-chloro-7H-pyrrolo[2,3-d]pyrimidin-7-yl)-2-((benzoyloxy)methyl)-2-ethynyltetrahydrofuran-3-yl benzoate]
pIC50 [2]: 7.36

solubility at 24 h [1]: 182 µg/mL (≈ 441 µM) | half-life [3]: 0.026 h
SMILES: C#C[C@]1(COC(=O)c2ccccc2)O[C@@H](n2ccc3c(N)nc(Cl)nc32)C[C@@H]1O [Example 9, ((2R,3S,5R)-5-(4-amino-2-chloro-7H-pyrrolo[2,3-d]pyrimidin-7-yl)-2-ethynyl-3-hydroxytetrahydrofuran-2-yl)methyl benzoate]
pIC50 [2]: 8.55

From patent US20240287124A1, “PRODRUGS OF 4'-SUBSTITUTED NUCLEOSIDE REVERSE TRANSCRIPTASE INHIBITORS” (Merck Sharp & Dohme LLC, priority 2023, published 2024)
